{"source": "ChEMBL document CHEMBL4813995", "about": "“Synthesis and anti-trypanosomal activity of 3'-fluororibonucleosides derived from 7-deazapurine nucleosides” (Bioorg Med Chem Lett, 2021)", "key": {"HeLa S3": {"test_system": "HeLa S3", "test": "Cytotoxicity against human HeLa S3 cells assessed as reduction in cell viability by XTT assay", "type": "functional, cell-based"}, "HL-60": {"test_system": "HL-60", "test": "Cytotoxicity against human HL-60 cells assessed as reduction in cell viability by XTT assay", "type": "functional, cell-based"}, "[1]": {"test": "Selective index, ratio of IC50 for human NHDF cells to EC50 for Trypanosoma brucei brucei", "type": "toxicity", "conditions": "read-out: Ratio IC50/EC50"}, "CCRF-CEM": {"test_system": "CCRF-CEM", "test": "Cytotoxicity against human CCRF-CEM cells assessed as reduction in cell viability by XTT assay", "type": "functional, cell-based"}, "HepG2": {"test_system": "HepG2", "test": "Cytotoxicity against human HepG2 cells assessed as reduction in cell viability by XTT assay", "type": "functional, cell-based"}, "NHDF": {"test_system": "NHDF", "test": "Cytotoxicity against human NHDF cells assessed as reduction in cell viability by XTT assay", "type": "cell-based"}, "[2]": {"test_system": "Trypanosoma brucei brucei", "test": "Antitrypanosomal activity against Trypanosoma brucei brucei by drug sensitivity assay", "type": "functional, organism-based"}, "[3]": {"test": "Selective index, ratio of IC50 for human NHDF cells to EC50 for Trypanosoma brucei gambiense", "type": "toxicity", "conditions": "read-out: Ratio IC50/EC50"}, "[4]": {"test_system": "Trypanosoma brucei gambiense", "test": "Antitrypanosomal activity against Trypanosoma brucei gambiense by drug sensitivity assay", "type": "functional, organism-based"}}, "data": [{"smiles": "Nc1ncnc2c1ccn2[C@@H]1O[C@H](CO)[C@@H](F)[C@H]1O", "values": [{"measurement": "IC50", "setting": "HeLa S3", "value": "> 10", "unit": "µM"}, {"measurement": "IC50", "setting": "HL-60", "value": "> 10", "unit": "µM"}, {"measurement": "selectivity ratio", "setting": "[1]", "value": "> 1.7"}, {"measurement": "IC50", "setting": "CCRF-CEM", "value": "> 10", "unit": "µM"}, {"measurement": "IC50", "setting": "HepG2", "value": "> 10", "unit": "µM"}, {"measurement": "IC50", "setting": "NHDF", "value": "> 10", "unit": "µM"}, {"measurement": "EC50", "setting": "[2]", "value": 6, "unit": "µM"}]}, {"smiles": "Nc1ncnc2c1c(I)cn2[C@@H]1O[C@H](CO)[C@@H](F)[C@H]1O", "values": [{"measurement": "IC50", "setting": "HeLa S3", "value": 6.3, "unit": "µM"}, {"measurement": "IC50", "setting": "HL-60", "value": 1.13, "unit": "µM"}, {"measurement": "selectivity ratio", "setting": "[1]", "value": "> 666"}, {"measurement": "selectivity ratio", "setting": "[3]", "value": "> 455"}, {"measurement": "IC50", "setting": "CCRF-CEM", "value": 4.5, "unit": "µM"}, {"measurement": "IC50", "setting": "HepG2", "value": 1.1, "unit": "µM"}, {"measurement": "EC50", "setting": "[4]", "value": 0.022, "unit": "µM"}, {"measurement": "IC50", "setting": "NHDF", "value": "> 10", "unit": "µM"}, {"measurement": "EC50", "setting": "[2]", "value": 0.015, "unit": "µM"}]}, {"smiles": "Nc1ncnc2c1c(-c1cccs1)cn2[C@@H]1O[C@H](CO)[C@@H](F)[C@H]1O", "values": [{"measurement": "IC50", "setting": "HeLa S3", "value": "> 10", "unit": "µM"}, {"measurement": "IC50", "setting": "HL-60", "value": "> 10", "unit": "µM"}, {"measurement": "selectivity ratio", "setting": "[1]", "value": "> 2"}, {"measurement": "IC50", "setting": "CCRF-CEM", "value": "> 10", "unit": "µM"}, {"measurement": "IC50", "setting": "HepG2", "value": "> 10", "unit": "µM"}, {"measurement": "IC50", "setting": "NHDF", "value": "> 10", "unit": "µM"}, {"measurement": "EC50", "setting": "[2]", "value": 4.92, "unit": "µM"}]}, {"smiles": "Nc1ncnc2c1c(-c1ccco1)cn2[C@@H]1O[C@H](CO)[C@@H](F)[C@H]1O", "values": [{"measurement": "IC50", "setting": "HeLa S3", "value": "> 10", "unit": "µM"}, {"measurement": "IC50", "setting": "HL-60", "value": "> 10", "unit": "µM"}, {"measurement": "selectivity ratio", "setting": "[1]", "value": "> 6"}, {"measurement": "IC50", "setting": "CCRF-CEM", "value": "> 10", "unit": "µM"}, {"measurement": "IC50", "setting": "HepG2", "value": "> 10", "unit": "µM"}, {"measurement": "IC50", "setting": "NHDF", "value": "> 10", "unit": "µM"}, {"measurement": "EC50", "setting": "[2]", "value": 1.59, "unit": "µM"}]}, {"smiles": "Nc1ncnc2c1c(-c1ccc(Cl)cc1)cn2[C@@H]1O[C@H](CO)[C@@H](F)[C@H]1O", "values": [{"measurement": "IC50", "setting": "HeLa S3", "value": "> 10", "unit": "µM"}, {"measurement": "IC50", "setting": "HL-60", "value": "> 10", "unit": "µM"}, {"measurement": "selectivity ratio", "setting": "[1]", "value": "> 20"}, {"measurement": "selectivity ratio", "setting": "[3]", "value": "> 10"}, {"measurement": "IC50", "setting": "CCRF-CEM", "value": "> 10", "unit": "µM"}, {"measurement": "IC50", "setting": "HepG2", "value": "> 10", "unit": "µM"}, {"measurement": "EC50", "setting": "[4]", "value": 0.99, "unit": "µM"}, {"measurement": "IC50", "setting": "NHDF", "value": "> 10", "unit": "µM"}, {"measurement": "EC50", "setting": "[2]", "value": 0.49, "unit": "µM"}]}, {"smiles": "Nc1ncnc2c1c(Br)cn2[C@@H]1O[C@H](CO)[C@@H](F)[C@H]1O", "values": [{"measurement": "IC50", "setting": "HeLa S3", "value": "> 10", "unit": "µM"}, {"measurement": "IC50", "setting": "HL-60", "value": "> 10", "unit": "µM"}, {"measurement": "selectivity ratio", "setting": "[1]", "value": "> 208"}, {"measurement": "selectivity ratio", "setting": "[3]", "value": "> 270"}, {"measurement": "IC50", "setting": "CCRF-CEM", "value": "> 10", "unit": "µM"}, {"measurement": "IC50", "setting": "HepG2", "value": "> 10", "unit": "µM"}, {"measurement": "EC50", "setting": "[4]", "value": 0.037, "unit": "µM"}, {"measurement": "IC50", "setting": "NHDF", "value": "> 10", "unit": "µM"}, {"measurement": "EC50", "setting": "[2]", "value": 0.048, "unit": "µM"}]}, {"smiles": "Nc1ncnc2c1c(-c1ccc3ccccc3c1)cn2[C@@H]1O[C@H](CO)[C@@H](F)[C@H]1O", "values": [{"measurement": "IC50", "setting": "HeLa S3", "value": "> 10", "unit": "µM"}, {"measurement": "IC50", "setting": "HL-60", "value": "> 10", "unit": "µM"}, {"measurement": "IC50", "setting": "CCRF-CEM", "value": "> 10", "unit": "µM"}, {"measurement": "IC50", "setting": "HepG2", "value": "> 10", "unit": "µM"}, {"measurement": "IC50", "setting": "NHDF", "value": "> 10", "unit": "µM"}, {"measurement": "EC50", "setting": "[2]", "value": 16.2, "unit": "µM"}]}, {"smiles": "Nc1ncnc2c1c(-c1cccc3c1oc1ccccc13)cn2[C@@H]1O[C@H](CO)[C@@H](F)[C@H]1O", "values": [{"measurement": "IC50", "setting": "HeLa S3", "value": "> 10", "unit": "µM"}, {"measurement": "IC50", "setting": "HL-60", "value": "> 10", "unit": "µM"}, {"measurement": "IC50", "setting": "CCRF-CEM", "value": "> 10", "unit": "µM"}, {"measurement": "IC50", "setting": "HepG2", "value": "> 10", "unit": "µM"}, {"measurement": "IC50", "setting": "NHDF", "value": "> 10", "unit": "µM"}, {"measurement": "EC50", "setting": "[2]", "value": 15.4, "unit": "µM"}]}]}
